ChEMBL document CHEMBL6127119 (J Med Chem, 2024)
In brackets after ≈: the same amount, converted by molar mass. Activity calls are given as the source filed them. The calls are words filed in the database; no cut-off is given here.

What was measured:
Staphylococcus aureus [1] = assay: Induction of drug resistance in vancomycin-intermediate Staphylococcus aureus Mu50 assessed as change in MIC after 20 passages by broth microdilution method; type: functional, organism-based
[2] = Half life in CD-1 mouse at 10 mg/kg, iv measured for 24 hrs by UPLC analysis; type: ADME, organism-based; details: in vivo
Staphylococcus aureus [3] = assay: Induction of membrane disruption in Staphylococcus aureus MRSA252 assessed as leakage of protoplasm content at 1 to 8 ug/ml incubated for 4 to 24 hrs by SEM analysis; type: functional, organism-based; details: dose 1-8 µg/ml, time 4-24 hrs
Peptidoglycan [4] = assay: Binding affinity to Ac-Lys(Ac)-D-Ala-D-Ala lipid II model peptide moiety assessed as association constant by ITC analysis
Staphylococcus aureus [5] = assay: Post-antibiotic effect in Staphylococcus aureus MRSA252 at 10 times measured after 7 hrs; type: functional, organism-based
Escherichia coli [6] = assay: Potency index, ratio of Norvancomycin MIC to test compound MIC for Escherichia coli […] incubated for 16 to 24 hrs by CLSI based broth microdilution method; type: functional; details: time 16-24 hrs
Peptidoglycan [7] = assay: Potency index, ratio of vancomycin Ka to test compound Ka for Ac-Lys(D-isoAsp)-D-Ala-D-Ala lipid II model peptide moiety assessed as association constant by ITC analysis
Enterococcus faecium [8] = assay: Potency index, ratio of Norvancomycin MIC to test compound MIC for vancomycin-resistant Enterococcus faecium incubated for 16 to 24 hrs by CLSI based broth microdilution method; type: functional; details: time 16-24 hrs
Acinetobacter baumannii [9] = assay: Potency index, ratio of Vancomycin MIC to test compound MIC for Carbapenem-resistant Acinetobacter baumannii clinical isolate incubated for 16 to 24 hrs by CLSI based broth microdilution method; type: functional; details: time 16-24 hrs
Staphylococcus aureus [10] = assay: Induction of cytoplasmic membrane permeabilization in methicillin-resistant Staphylococcus aureus MRSA252 measured for 40 mins by PI/NPN staining based analysis; type: functional, organism-based; details: dose 1-128 µg/ml
Enterococcus faecalis [11] = assay: Induction of cytoplasmic membrane depolarization in Enterococcus faecalis ATCC29212 by DiSC3(5) staining based analysis; type: functional, organism-based
Staphylococcus aureus [12] = assay: Induction of membrane disruption in Staphylococcus aureus MRSA252 assessed as leakage of protoplasm content at 1 to 8 ug/ml incubated for 4 to 24 hrs by TEM analysis; type: functional, organism-based; details: dose 1-8 µg/ml, time 4-24 hrs
[13] = Volume of distribution at steady state in CD-1 mouse at 10 mg/kg, iv measured for 24 hrs by UPLC analysis; type: ADME, organism-based; details: in vivo, read-out: Vdss
Enterococcus faecium [14] = assay: Antibacterial activity against vancomycin-resistant Enterococcus faecium harboring VanB phenotype incubated for 16 to 24 hrs by CLSI based broth microdilution method; type: functional; details: time 16-24 hrs
Peptidoglycan [15] = assay: Binding affinity to Ac-Lys(Ac)-D-Ala-D-Ala lipid II model peptide moiety assessed as change in Gibb's free energy by ITC analysis
Staphylococcus aureus [16] = assay: Inhibition of peptidoglycan biosynthesis in Staphylococcus aureus MRSA252 assessed as increase in accumulation of Park's nucleotide at 0.5 ug/ml incubated for 2 hrs by RP-HPLC analysis; type: functional, organism-based; details: dose 0.5 µg/ml
[17] = Toxicity in BALB/c mouse infected with methicillin-resistant Staphylococcus aureus MRSA252 assessed as survival rate at 10 to 20 mg/kg, iv for 7 days; type: organism-based; details: in vivo, 168 h, dose 10-20 mg/kg, time 7 day
Peptidoglycan [18] = assay: Binding affinity to Ac-Lys(D-isoAsp)-D-Ala-D-Ala lipid II model peptide moiety assessed as association constant by ITC analysis
Staphylococcus aureus [19] = assay: Antibacterial activity against methicillin-susceptible Staphylococcus aureus incubated for 16 to 24 hrs by CLSI based broth microdilution method; type: functional; details: time 16-24 hrs
Staphylococcus aureus [20] = assay: Induction of drug resistance in vancomycin-sensitive Staphylococcus aureus MRSA252 assessed as change in MIC measured after 16 days of serial passages by broth microdilution method; type: functional, organism-based; details: time 16.0 day
Escherichia coli [21] = assay: Bactericidal activity against Escherichia coli AB1157 assessed as reduction in bacterial count at MIC measured after 24 hrs by time kill assay; type: functional
Peptidoglycan [22] = assay: Potency index, ratio of vancomycin Ka to test compound Ka for Ac-Lys(D-isoAsp)-D-Ala-D-Ala lipid II model peptide moiety
Escherichia coli [23] = assay: Induction of cytoplasmic membrane permeabilization in Escherichia coli AB1157 at 16 ug/ml measured for 40 mins by PI/NPN staining based assay; type: functional, organism-based; details: dose 16.0 µg/ml
Staphylococcus aureus [24] = assay: Antibacterial activity against Staphylococcus aureus Mu50 at 1:1 ratio of compound and phosphatidylglycerol at […] incubated for 16 to 24 hrs by absorbance based assay; type: functional, organism-based; details: dose 128.0 µg/ml, time 16-24 hrs
[25] = Clearance in CD-1 mouse at 10 mg/kg, iv measured for 24 hrs by UPLC analysis; type: ADME, organism-based; details: in vivo
Acinetobacter baumannii [26] = assay: Antibacterial activity against Carbapenem-resistant Acinetobacter baumannii clinical isolate incubated for 16 to 24 hrs by CLSI based broth microdilution method; type: functional; details: time 16-24 hrs
[27] = MRT (infinity) in CD-1 mouse at 10 mg/kg, iv measured for 24 hrs by UPLC analysis; type: ADME, organism-based; details: in vivo
[28] = Hemolytic activity in rat RBC upto 100 ug/ml incubated for 1 hr by absorbance based assay; type: toxicity, cell-based; details: erythrocyte, dose < 100 µg/ml
Escherichia coli [29] = assay: Bactericidal activity against Escherichia coli AB1157 assessed as reduction in bacterial count at 4 times MIC measured after 24 hrs by time kill assay; type: functional
[30] = AUC (infinity) in CD-1 mouse at 10 mg/kg, iv measured for 24 hrs by UPLC analysis; type: ADME, organism-based; details: in vivo
Peptidoglycan [31] = assay: Binding affinity to Ac-Lys(D-isoAsp)-D-Ala-D-Ala lipid II model peptide moiety assessed as change in Gibb's free energy by ITC analysis
[32] = system: Staphylococcus epidermidis; assay: Antibacterial activity against methicillin-resistant Staphylococcus epidermidis clinical isolate incubated for 16 to 24 hrs by CLSI based broth microdilution method; type: functional; details: time 16-24 hrs
[33] = system: Staphylococcus haemolyticus; assay: Antibacterial activity against methicillin-resistant Staphylococcus haemolyticus clinical isolate incubated for 16 to 24 hrs by CLSI based broth microdilution method; type: functional; details: time 16-24 hrs
Pseudomonas aeruginosa = assay: Antibacterial activity against Pseudomonas aeruginosa PAO1 incubated for 16 to 24 hrs by CLSI based broth microdilution method; type: functional; details: time 16-24 hrs
Enterococcus faecalis [34] = assay: Induction of inner membrane permeabilization in Enterococcus faecalis ATCC29212 measured for 20 mins by DiSC3(5) staining based analysis; type: functional, organism-based; details: dose 1-128 µg/ml
Escherichia coli [35] = assay: Induction of cytoplasmic membrane depolarization in Escherichia coli AB1157 at 5 uM by DiSC3(5) staining based analysis; type: functional, organism-based
Peptidoglycan [36] = assay: Binding affinity to Ac-Lys(Gly5)-D-Ala-D-Ala lipid II model peptide moiety assessed as change in Gibb's free energy by ITC analysis
Escherichia coli [37] = assay: Bactericidal activity against Escherichia coli AB1157 assessed as reduction in bacterial count measured after 24 hrs by time kill assay; type: functional, organism-based
[38] = AUClast in CD-1 mouse at 10 mg/kg, iv measured for 24 hrs by UPLC analysis; type: ADME, organism-based; details: in vivo
Staphylococcus aureus [39] = assay: Post-antibiotic effect in Staphylococcus aureus MRSA252 assessed as decrease in bacterial titer at 20 times measured after 7 hrs; type: functional
Staphylococcus aureus [40] = assay: Antibacterial activity against vancomycin-intermediate Staphylococcus aureus incubated for 16 to 24 hrs by CLSI based broth microdilution method; type: functional; details: time 16-24 hrs

## CC(C)C[C@@H](N)C(=O)N[C@H]1C(=O)N[C@@H](CC(N)=O)C(=O)N[C@H]2C(=O)N[C@H]3C(=O)N[C@H](C(=O)N[C@H](C(=O)NCc4ccc(-c5ccc(CNC(=N)N)cc5)cc4)c4cc(O)cc(O)c4-c4cc3ccc4O)[C@H](O)c3ccc(c(Cl)c3)Oc3cc2cc(c3O[C@@H]2O[C@H](CO)[C@@H](O)[C@H](O)[C@H]2O[C@H]2C[C@](C)(N)[C@H](O)[C@H](C)O2)Oc2ccc(cc2Cl)[C@H]1O
Staphylococcus aureus [1]
  Activity: inactive
[2]
  half-life: 13.4 h
Staphylococcus aureus [3]
  Activity: Active
Peptidoglycan [4]
  Ka: 1.32e+06 M⁻¹
Staphylococcus aureus [5]
  Activity: Active
Escherichia coli [6]
  Ratio: 2
Peptidoglycan [7]
  Ratio: 17.3
Enterococcus faecium [8]
  Ratio: 2
Acinetobacter baumannii [9]
  Ratio: 2
Staphylococcus aureus [10]
  Activity: Dose-Dependent Effect
Enterococcus faecalis [11]
  Activity: Active
Staphylococcus aureus [12]
  Activity: Active
[13]
  Vd: 5.12 L/kg
Enterococcus faecium [14]
  MIC: 2 µg/mL (≈ 1.2 µM)
Peptidoglycan [15]
  deltaG: -8.35 kcal/mol
Staphylococcus aureus [16]
  Activity: Active
[17]
  Activity: 100%
Peptidoglycan [18]
  Ka: 687000 M⁻¹
Staphylococcus aureus [19]
  MIC: ≤ 0.063 µg/mL
Staphylococcus aureus [20]
  Activity: inactive
Escherichia coli [21]
  Activity: 1 log10CFU/ml
Peptidoglycan [22]
  Ratio: 2.7
Escherichia coli [23]
  Activity: Active
Staphylococcus aureus [24]
  Activity: Active
[25]
  clearance: 4.2 mL/min/kg
Acinetobacter baumannii [26]
  MIC: 64 µg/mL (≈ 38.3 µM)
[27]
  MRT inf: 20.2 h
[28]
  Activity: Non-Toxic
Escherichia coli [29]
  Activity: 2 log10CFU/ml
[30]
  AUC(0-inf): 40000 ng·h/mL
Peptidoglycan [31]
  deltaG: -7.96 kcal/mol
[32]
  MIC: ≤ 0.03 µg/mL
[33]
  MIC: ≤ 0.03 µg/mL
Pseudomonas aeruginosa
  MIC: > 128 µg/mL
Enterococcus faecalis [34]
  Activity: Dose-Dependent Effect
Escherichia coli [35]
  Activity: inactive
Peptidoglycan [36]
  deltaG: -8.69 kcal/mol
Escherichia coli [37]
  Activity: Dose-Dependent Effect
[38]
  AUC(0-t) at 24 h: 28400 ng·h/mL
Staphylococcus aureus [39]
  Activity: 1.2 log10CFU/ml
Staphylococcus aureus [40]
  MIC: 1 µg/mL (≈ 0.598 µM)
